{"source": "paper PMC5691768", "about": "“Comparison of the Micellar Incorporation and the Intestinal Cell Uptake of Cholecalciferol, 25-Hydroxycholecalciferol and 1-α-Hydroxycholecalciferol” (Nutrients, 2017)", "key": {"human ASBT": {"biological_target": "T1, human ASBT (Homo sapiens, UniProt Q12908)", "T1 construct": "host or cells: Griptite cells (HEK-293-derived, own knowledge)", "T1 sequence (Q12908 1-348)": "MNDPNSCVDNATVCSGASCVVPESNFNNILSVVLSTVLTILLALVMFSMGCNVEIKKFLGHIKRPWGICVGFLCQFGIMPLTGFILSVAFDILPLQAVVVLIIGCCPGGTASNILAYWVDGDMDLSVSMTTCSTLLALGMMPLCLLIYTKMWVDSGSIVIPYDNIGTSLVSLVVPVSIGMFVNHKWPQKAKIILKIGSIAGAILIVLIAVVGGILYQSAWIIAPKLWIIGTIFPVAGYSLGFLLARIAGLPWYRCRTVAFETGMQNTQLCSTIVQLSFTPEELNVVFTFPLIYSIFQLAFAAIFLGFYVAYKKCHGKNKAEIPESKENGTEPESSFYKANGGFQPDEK", "assay": "Uptake by Griptite cells overexpressing ASBT", "type": "in vitro ADME", "details": "Griptite cells transfected with human ASBT vs empty plasmid, 37 °C, 1 h", "protocol": "Griptite cells were cultured and transfected with 3 µg DNA (either ASBT in pCMV plasmid or empty pCMV control plasmid) similarly to HEK cells, as previously described. Transfection efficiency was verified by western blotting, as previously published. A pre-incubation of the cell monolayers with DMEM supplemented with either DMSO (control) or 100 µM simvastatin was performed during 30 min. Synthetic mixed micelles containing vitamin D forms were diluted in DMEM (1:5) to avoid cytotoxicity [23](data not shown). Apical uptake of vitamin D forms was determined after a 1 h-incubation with a solution of micellar vitamin D containing either DMSO or 100 µM simvastatin (final concentration of DMSO in both conditions: 0.01%). The % of vitamin D taken up was estimated as the quantity of vitamin D present in the harvested cells divided by the sum of the quantity of vitamin D remaining in the apical chamber and that present in the harvested cells."}, "NPC1L1": {"biological_target": "T2, NPC1L1 (Homo sapiens, UniProt Q9UHC9)", "T2 construct": "endogenous in cells; host or cells: Caco-2 clone TC-7", "T2 sequence (Q9UHC9 22-1359)": "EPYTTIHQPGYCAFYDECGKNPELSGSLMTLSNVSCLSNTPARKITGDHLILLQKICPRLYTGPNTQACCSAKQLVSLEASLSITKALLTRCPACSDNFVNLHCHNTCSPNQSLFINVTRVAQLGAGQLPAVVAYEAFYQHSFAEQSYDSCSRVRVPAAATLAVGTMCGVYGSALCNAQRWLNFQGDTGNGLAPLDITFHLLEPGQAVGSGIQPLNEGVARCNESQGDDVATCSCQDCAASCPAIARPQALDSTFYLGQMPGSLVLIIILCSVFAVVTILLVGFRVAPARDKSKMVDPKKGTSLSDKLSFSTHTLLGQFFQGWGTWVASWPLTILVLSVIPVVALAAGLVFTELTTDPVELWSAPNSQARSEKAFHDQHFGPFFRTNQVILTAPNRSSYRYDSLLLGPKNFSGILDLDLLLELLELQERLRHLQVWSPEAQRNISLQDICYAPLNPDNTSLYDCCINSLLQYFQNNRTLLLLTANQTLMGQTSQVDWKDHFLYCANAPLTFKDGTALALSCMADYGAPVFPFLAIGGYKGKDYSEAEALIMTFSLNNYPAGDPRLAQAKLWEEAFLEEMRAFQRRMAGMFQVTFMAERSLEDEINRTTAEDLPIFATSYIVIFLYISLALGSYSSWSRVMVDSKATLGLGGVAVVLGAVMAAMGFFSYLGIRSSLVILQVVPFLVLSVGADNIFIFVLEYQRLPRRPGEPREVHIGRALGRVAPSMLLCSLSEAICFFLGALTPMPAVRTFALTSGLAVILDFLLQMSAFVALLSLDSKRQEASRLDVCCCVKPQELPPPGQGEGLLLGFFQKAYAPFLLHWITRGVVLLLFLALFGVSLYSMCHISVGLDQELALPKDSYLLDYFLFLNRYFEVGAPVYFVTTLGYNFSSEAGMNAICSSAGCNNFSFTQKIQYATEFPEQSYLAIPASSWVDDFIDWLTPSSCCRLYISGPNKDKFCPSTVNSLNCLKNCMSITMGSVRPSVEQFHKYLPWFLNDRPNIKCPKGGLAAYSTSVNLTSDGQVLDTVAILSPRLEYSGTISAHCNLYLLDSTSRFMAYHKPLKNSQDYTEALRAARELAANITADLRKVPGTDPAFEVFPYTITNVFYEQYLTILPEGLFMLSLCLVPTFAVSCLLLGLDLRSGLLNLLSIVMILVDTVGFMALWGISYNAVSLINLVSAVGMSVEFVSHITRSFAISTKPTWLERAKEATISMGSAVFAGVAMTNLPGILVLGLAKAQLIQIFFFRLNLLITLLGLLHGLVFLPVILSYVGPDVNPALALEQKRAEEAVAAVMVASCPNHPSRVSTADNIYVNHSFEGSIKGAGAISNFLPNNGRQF", "assay": "Uptake by Caco-2 cells with NPC1L1 inhibition by ezetimibe glucuronide", "type": "in vitro ADME", "details": "10 µM ezetimibe glucuronide (NPC1L1 inhibitor), n = 3", "protocol": "(§1) Caco-2 clone TC-7 cells were cultured as previously described. For each experiment, cells were seeded and grown on Millicell® hanging cell culture inserts (Millipore S.A.S., Molsheim, France) for 21 days to obtain confluent and highly differentiated cell monolayers. Twelve hours prior to each experiment, the medium in both the apical and basolateral chambers was replaced with serum-free complete medium. The apical uptake of vitamin D forms incorporated in mixed micelles was determined after a 1 h-incubation period in the presence or absence of inhibitors, as previously described. The % of vitamin D taken up was estimated as the quantity of vitamin D present in the harvested cells divided by the sum of the quantity of vitamin D remaining in the apical chamber and that present in the harvested cells. The efflux of vitamin D forms incorporated in mixed micelles was determined as previously described, with minor changes. Briefly, cells first received the vitamin D-rich micelles at the apical side for 4 h. They were then washed once with PBS and equilibrated in serum-free complete medium for 15 min. Cells were either harvested (control) or they received apical medium containing vitamin D-free mixed micelles for 1 h. The % of vitamin D effluxed back to the apical side was estimated as the quantity of vitamin D present in the apical chamber divided by the quantity of vitamin D present in the harvested cells at t0."}, "Caco-2 clone TC-7 cells": {"tested_on": "Caco-2 clone TC-7 cells", "assay": "Apical uptake of micellar vitamin D forms by Caco-2 cell monolayers", "type": "in vitro ADME, human", "details": "1 h incubation, mixed micelles; for uptake rate by Caco-2 cells at high concentration: >5 µM apical, n = 6; for uptake rate by Caco-2 cells at low concentration: <1 µM apical, n = 3", "protocol": "as §1\n(§2) Vitamin D forms were extracted from 500 µL aqueous samples using the method previously described. The internal standard was retinyl acetate for D3 and ergocalciferol for both 25(OH)D3 and 1α(OH)D3. After lipid extraction with hexane, dried residues were dissolved in 200 µL of mobile phase (acetonitrile/methanol/water, 60/38/2, v/v/v). A volume of 160 µL was used for HPLC analysis.\n(§3) The HPLC system and method were set up according to previous studies. All molecules were identified by retention time compared with pure standards."}, "[1]": {"design": "method as in PubChem Website", "details": "ref PubChem Website; cited from earlier work"}, "[2]": {"assay": "Incorporation of vitamin D forms in synthetic mixed micelles", "type": "physicochemical", "details": "for incorporation efficiency into synthetic mixed micelles: vitamin D form 0–20 µM, linear incorporation curves, n = 3", "protocol": "Mixed micelles were formed as previously described. Briefly, monoolein (0.3 mM), oleic acid (0.5 mM), phosphatidylcholine (0.04 mM), lysophosphatidylcholine (0.16 mM), and cholesterol (0.1 mM) dissolved in trichloromethane/methanol (2:1, v/v) and vitamin D forms (concentration range: 0–20 µM) dissolved in ethanol were transferred to a glass tube, and the solvent mixture was carefully evaporated under nitrogen. The dried residue was dispersed in DMEM containing 5 mM sodium taurocholate and was incubated at 37 °C for 30 min. The solution was mixed by sonication in a bath sonicator (Branson 3510 MT, 40 kHz; Branson Ultrasonics, Danbury, CT, USA) for 30 min and then incubated at 37 °C for 1 h. It was then filtrated through cellulose ester membranes (0.22 µm) (Millipore S.A.S., Molsheim, France), and the resulting solution of vitamin D-rich mixed micelles was stored at −20 °C until cell culture experiment or vitamin extraction and HPLC analysis. Concentrations of the different forms in the micellar solutions were checked before each experiment.\nas §2, §3"}, "ASBT": {"tested_on": "ASBT", "assay": "Uptake by Caco-2 cells with ASBT inhibition by simvastatin", "type": "in vitro ADME, human", "details": "100 µM simvastatin (ASBT inhibitor), n = 3", "protocol": "as §1, with “Cells were either harvested (control) or they received apical medium containing vitamin D-free mixed micelles for 1 h.” left out"}, "SR-BI": {"biological_target": "T3, SR-BI (Homo sapiens, UniProt Q8WTV0)", "T3 construct": "endogenous in cells; host or cells: Caco-2 clone TC-7", "T3 sequence (Q8WTV0 1-509 isoform Q8WTV0-2)": "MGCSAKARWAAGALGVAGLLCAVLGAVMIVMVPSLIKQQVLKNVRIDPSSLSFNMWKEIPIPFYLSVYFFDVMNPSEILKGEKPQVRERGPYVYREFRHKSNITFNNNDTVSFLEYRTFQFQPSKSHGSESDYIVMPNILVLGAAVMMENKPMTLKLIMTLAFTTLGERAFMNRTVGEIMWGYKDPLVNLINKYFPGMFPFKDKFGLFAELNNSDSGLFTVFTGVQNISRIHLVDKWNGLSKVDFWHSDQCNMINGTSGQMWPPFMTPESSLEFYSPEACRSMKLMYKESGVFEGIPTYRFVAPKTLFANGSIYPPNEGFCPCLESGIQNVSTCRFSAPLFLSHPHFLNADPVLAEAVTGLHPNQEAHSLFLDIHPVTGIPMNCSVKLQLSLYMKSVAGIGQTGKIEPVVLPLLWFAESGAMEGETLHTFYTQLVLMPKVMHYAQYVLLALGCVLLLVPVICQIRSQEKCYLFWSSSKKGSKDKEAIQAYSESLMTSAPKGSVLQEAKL", "assay": "Uptake by Caco-2 cells with SR-BI inhibition by BLT1", "type": "in vitro ADME", "details": "10 µM BLT1 (SR-BI inhibitor), n = 3", "protocol": "as §1"}}}
{"smiles": "C=C1/C(=C\\C=C2/CCC[C@]3(C)[C@@H]([C@H](C)CCCC(C)C)CC[C@@H]23)C[C@@H](O)C[C@@H]1O", "note": "[1α(OH)D3, 1-α-hydroxycholecalciferol]", "values": [{"measurement": "effect of ASBT overexpression on uptake", "setting": "human ASBT", "result": "changed neither"}, {"measurement": "decrease of uptake in the presence of ezetimibe glucuronide", "setting": "NPC1L1", "result": "but not"}, {"measurement": "uptake rate by Caco-2 cells at high concentration", "setting": "Caco-2 clone TC-7 cells", "result": 25, "unit": "%"}, {"measurement": "uptake rate by Caco-2 cells at low concentration", "setting": "Caco-2 clone TC-7 cells", "result": 18, "unit": "%"}, {"measurement": "log P", "setting": "[1]", "result": 6.8}, {"measurement": "incorporation efficiency into synthetic mixed micelles", "setting": "[2]", "result": 62, "unit": "%"}, {"measurement": "fold improvement of solubilization into mixed micelles compared to 25-hydroxycholecalciferol", "setting": "[2]; vs 25-hydroxycholecalciferol", "result": 2.9, "unit": "fold"}, {"measurement": "fold improvement of solubilization into mixed micelles compared to cholecalciferol", "setting": "[2]; vs cholecalciferol", "result": 1.6, "unit": "fold"}, {"measurement": "decrease of uptake in the presence of simvastatin", "setting": "ASBT", "result": "~15", "unit": "%"}, {"measurement": "decrease of uptake in the presence of BLT1", "setting": "SR-BI", "result": "not significantly modified"}]}
{"smiles": "C=C1CC[C@H](O)C/C1=C/C=C1\\CCC[C@]2(C)[C@@H]([C@H](C)CCCC(C)(C)O)CC[C@@H]12", "note": "[25(OH)D3, 25-hydroxycholecalciferol]", "values": [{"measurement": "decrease of uptake in the presence of ezetimibe glucuronide", "setting": "NPC1L1", "result": "but not"}, {"measurement": "uptake rate by Caco-2 cells at high concentration", "setting": "Caco-2 clone TC-7 cells", "result": 34, "unit": "%"}, {"measurement": "uptake rate by Caco-2 cells at low concentration", "setting": "Caco-2 clone TC-7 cells", "result": 29, "unit": "%"}, {"measurement": "log P", "setting": "[1]", "result": 6.2}, {"measurement": "incorporation efficiency into synthetic mixed micelles", "setting": "[2]", "result": 21, "unit": "%"}, {"measurement": "decrease of uptake in the presence of BLT1", "setting": "SR-BI", "result": "not significantly modified"}]}
{"smiles": "C=C1CC[C@H](O)C/C1=C/C=C1\\CCC[C@]2(C)[C@@H]([C@H](C)CCCC(C)C)CC[C@@H]12", "note": "[D3, cholecalciferol]", "values": [{"measurement": "effect of ASBT overexpression on uptake", "setting": "human ASBT", "result": "changed neither"}, {"measurement": "decrease of uptake in the presence of ezetimibe glucuronide", "setting": "NPC1L1", "result": 30, "unit": "%"}, {"measurement": "uptake rate by Caco-2 cells at high concentration", "setting": "Caco-2 clone TC-7 cells", "result": 18, "unit": "%"}, {"measurement": "uptake rate by Caco-2 cells at low concentration", "setting": "Caco-2 clone TC-7 cells", "result": 10, "unit": "%"}, {"measurement": "log P", "setting": "[1]", "result": 7.9}, {"measurement": "incorporation efficiency into synthetic mixed micelles", "setting": "[2]", "result": 39, "unit": "%"}, {"measurement": "decrease of uptake in the presence of simvastatin", "setting": "ASBT", "result": "about 24%"}, {"measurement": "decrease of uptake in the presence of BLT1", "setting": "SR-BI", "result": 31, "unit": "%"}]}
